Columns and labels:
Conditions in all cases: 48 h
NOMO1 [1] = test: cell viability relative to DMSO control; higher = less cytotoxic
Outline: (§1)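 NOMO1, SEM and P12-Ichikawa leukemia cells spent at least four passages adapting to each medium before use. They were seeded at 500 cells/well (NOMO1, SEM) or 1000 cells/well (P12-Ichikawa) in 5 μl in 1536-well plates and pin-dosed with library compounds in DMSO at 11 threefold steps from 47 μM down to 0.79 nM. After 48 h at 37°C, CellTiter-Glo One luminescence was read. Viability is reported as a percentage of the DMSO wells on each plate, with cell-free wells as background.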

P12-Ichikawa [2] = test: as above
Outline: as §1

SEM cells [3] = test: as above
Outline: as §1

P12-Ichikawa [4] = test: AUC of viability dose-response curve (% viability x log10 dose units); higher = less sensitive
Outline: (§2)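 Viability of medium-adapted leukemia cells was measured by CellTiter-Glo One luminescence after 48 h at 37°C with library compounds in DMSO. Doses were 11 threefold steps from 47 μM to 0.79 nM, in 1536-well plates at 500 or 1000 cells/well. Signals were normalised per plate to DMSO and cell-free wells and fitted with a four-parameter log-logistic model on log10 dose. Area under the curve was integrated by trapezoidal rule, with curves exceeding full viability scaled and failed quality-control curves removed.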

SEM cells [5] = test: as above
Outline: as §2

NOMO1 [6] = test: as above
Outline: as §2

Nc1nc(Cl)nc2c1ncn2[C@@H]1O[C@H](CO)[C@@H](O)[C@@H]1F
cell viability [%]
Conditions | NOMO1 [1] | P12-Ichikawa [2] | SEM cells [3]
HPLM + 10% dialyzed FBS, 0.000781 µM | 41.7 | 18.2 | 14.5
HPLM + 10% dialyzed FBS, 0.00234 µM | 70.8 | 55.1 | 17
HPLM + 10% dialyzed FBS, 0.00702 µM | 43.4 | 15.7 | 16.4
HPLM + 10% dialyzed FBS, 0.0211 µM | 33.3 | 16.3 | 15.7
HPLM + 10% dialyzed FBS, 0.0632 µM | 26.6 | 18.8 | 18
HPLM + 10% dialyzed FBS, 0.19 µM | 18.2 | 15.4 | 16.5
HPLM + 10% dialyzed FBS, 0.569 µM | 24.7 | 15.2 | 15.1
HPLM + 10% dialyzed FBS, 1.71 µM | 23.9 | 11.8 | 16.1
HPLM + 10% dialyzed FBS, 5.12 µM | 21.2 | 13.5 | 10.2
HPLM + 10% dialyzed FBS, 15.4 µM | 18.1 | 10.6 | 8.98
HPLM + 10% dialyzed FBS, 46.1 µM | 18.6 | 8.95 | 4.93
RPMI 5 mM glucose + 10% FBS, 0.000781 µM | 77.2 | 32.2 | 15.3
RPMI 5 mM glucose + 10% FBS, 0.00234 µM | 131 | 50 | 20
RPMI 5 mM glucose + 10% FBS, 0.00702 µM | 49 | 15.6 | 18.8
RPMI 5 mM glucose + 10% FBS, 0.0211 µM | 27.2 | 14.8 | 16.8
RPMI 5 mM glucose + 10% FBS, 0.0632 µM | 20 | 16.3 | 14.3
RPMI 5 mM glucose + 10% FBS, 0.19 µM | 21.7 | 13.6 | 10.8
RPMI 5 mM glucose + 10% FBS, 0.569 µM | 16.9 | 10.6 | 9.77
RPMI 5 mM glucose + 10% FBS, 1.71 µM | 16.7 | 9.04 | 9.03
RPMI 5 mM glucose + 10% FBS, 5.12 µM | 18.4 | 8.02 | 5.46
RPMI 5 mM glucose + 10% FBS, 15.4 µM | 16 | 9.03 | 3.69
RPMI 5 mM glucose + 10% FBS, 46.1 µM | 13.5 | 5.68 | 2.88
RPMI 5 mM glucose + 10% dialyzed FBS, 0.000781 µM | 38.9 | 28.4 | 12.6
RPMI 5 mM glucose + 10% dialyzed FBS, 0.00234 µM | 63.2 | 37.2 | 14.1
RPMI 5 mM glucose + 10% dialyzed FBS, 0.00702 µM | 29.8 | 24.4 | 15.2
RPMI 5 mM glucose + 10% dialyzed FBS, 0.0211 µM | 25.7 | 23.5 | 16.5
RPMI 5 mM glucose + 10% dialyzed FBS, 0.0632 µM | 23 | 24.7 | 14
RPMI 5 mM glucose + 10% dialyzed FBS, 0.19 µM | 23.6 | 24.6 | 11.9
RPMI 5 mM glucose + 10% dialyzed FBS, 0.569 µM | 19.9 | 21.2 | 10.8
RPMI 5 mM glucose + 10% dialyzed FBS, 1.71 µM | 16.4 | 24.3 | 10.3
RPMI 5 mM glucose + 10% dialyzed FBS, 5.12 µM | 14.2 | 19 | 8.13
RPMI 5 mM glucose + 10% dialyzed FBS, 15.4 µM | 19.7 | 20.3 | 8.34
RPMI 5 mM glucose + 10% dialyzed FBS, 46.1 µM | 17.1 | 17.5 | 4.01

AUC of viability dose-response curve
Conditions | HPLM + 10% dialyzed FBS | RPMI 5 mM glucose + 10% FBS | RPMI 5 mM glucose + 10% dialyzed FBS
P12-Ichikawa [4] | 83.1 | 75.7 | 115
SEM cells [5] | 68 | 55.4 | 55.4

O=C(OCC#CCSc1nnc(-c2cccc3ccccc23)o1)c1cc2ccccc2s1
SEM cells [3], HPLM + 10% dialyzed FBS
Conditions | cell viability [%]
0.000781 µM | 119
0.00234 µM | 122
0.00702 µM | 121
0.0211 µM | 124
0.0632 µM | 42.3
0.19 µM | 132
0.569 µM | 130
1.71 µM | 115
5.12 µM | 71.7
15.4 µM | 128
46.1 µM | 113

AUC of viability dose-response curve
Conditions | HPLM + 10% dialyzed FBS | RPMI 5 mM glucose + 10% FBS | RPMI 5 mM glucose + 10% dialyzed FBS
NOMO1 [6] | 431 | 443 | 455
P12-Ichikawa [4] | 451 | 444 | 468

CC(=O)[C@]1(O)Cc2c(O)c3c(c(O)c2[C@@H](O[C@H]2C[C@H](N)[C@H](O)[C@H](C)O2)C1)C(=O)c1ccccc1C3=O
cell viability [%], SEM cells [3]
Conditions | HPLM + 10% dialyzed FBS | RPMI 5 mM glucose + 10% FBS | RPMI 5 mM glucose + 10% dialyzed FBS
0.000781 µM | 118 | 104 | 126
0.00234 µM | 127 | 117 | 110
0.00702 µM | 123 | 113 | 116
0.0211 µM | 124 | 104 | 125
0.0632 µM | 128 | 97.8 | 113
0.19 µM | 119 | 101 | 97.1
0.569 µM | 98.8 | 80.3 | 90.3
1.71 µM | 34.5 | 18.9 | 31.2
5.12 µM | 8.24 | 7.45 | 6.01
15.4 µM | 7.58 | 6.93 | 5.83
46.1 µM | 6.23 | 4.81 | 4.8

AUC of viability dose-response curve
Conditions | HPLM + 10% dialyzed FBS | RPMI 5 mM glucose + 10% FBS | RPMI 5 mM glucose + 10% dialyzed FBS
NOMO1 [6] | 364 | 367 | 374
SEM cells [5] | 320 | 313 | 313

Source: the supplement of paper PMC11451515
